Experiment: storage stability of the intermediate
Format: physicochemical

| Structure (SMILES) | stability of storage (under refrigeration and light shielding, amorphous powder) | can be stored (storage stability) (room temperature under light shielding, crystalline) |
| --- | --- | --- |
| O=C(Nc1ccc2c(CN3CCCC3)cn(Cc3c(Cl)cccc3Cl)c2c1)Oc1ccccc1 [Example 4, 6-phenyloxycarbonylamino-3-(1-pyrrolidinylmethyl)-N-[1-(2,6-dichlorophenyl)methyl]-1H-indole] | over 3 months |  |
| O=C(Nc1ccc2c(c1)c(CN1CCCC1)cn2Cc1c(Cl)cccc1Cl)Oc1ccccc1 [Example 2, 5-phenyloxycarbonylamino-3-(1-pyrrolidinylmethyl)-N-[1-(2,6-dichlorophenyl)methyl]-1H-indole] |  | over 2 years |
